Experiments:
Design in all cases: scale not given here
ABUTH Velvetleaf [1] = test: Postemergence herbicidal evaluation, ABUTH; type: in vivo, Abutilon theophrasti, Medic.; settings: postemergence spray, rated about two-three weeks after treatment
Summary of the method: (§1)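 Ratings from greenhouse plants scored about two to three weeks after a foliar spray; data from multiple tests averaged. Seedlings about two weeks old received roughly 0.006–0.400 kg/ha active compound in 80/20 acetone/water with 1.0% methylated seed oil.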

AMBEL Ragweed, Common [2] = test: Postemergence herbicidal evaluation, AMBEL; type: in vivo, Ambrosia artemisifolia, L.; settings: postemergence spray, rated about two-three weeks after treatment
Summary of the method: as §1

CASOB Sicklepod [3] = test: Postemergence herbicidal evaluation, CASOB; type: in vivo, Cassia obtusifolia, L.; settings: postemergence spray, rated about two-three weeks after treatment
Summary of the method: as §1

[4] = tested on: CHEAL Lambsquarters, Common; test: Postemergence herbicidal evaluation, CHEAL; type: in vivo, Chenopodium album, L.; settings: postemergence spray, rated about two-three weeks after treatment
Summary of the method: as §1

ECHOG Barnyardgrass [5] = test: Postemergence herbicidal evaluation, ECHOG; type: in vivo, Echinochloa crus-galli, (L.) Beau; settings: postemergence spray, rated about two-three weeks after treatment
Summary of the method: as §1

GALAP Galium [6] = test: Postemergence herbicidal evaluation, GALAP; type: in vivo, Galium aparine; settings: postemergence spray, rated about two-three weeks after treatment
Summary of the method: as §1

[7] = tested on: IPOHE Morningglory, Ivyleaf; test: Postemergence herbicidal evaluation, IPOHE; type: in vivo, Ipomoea hederacea, (L.) Jacq.; settings: postemergence spray, rated about two-three weeks after treatment
Summary of the method: as §1

SETVI Foxtail, Green [8] = test: Postemergence herbicidal evaluation, SETVI; type: in vivo, Setaria viridis, (L.) Beau; settings: postemergence spray, rated about two-three weeks after treatment
Summary of the method: as §1

GLXMAW Soybean, Williams [9] = test: Postemergence herbicidal evaluation, GLXMAW; type: in vivo, Glycine max, (L.) Merr. cv Williams; settings: postemergence spray, rated about two-three weeks after treatment
Summary of the method: as §1

[10] = tested on: TRZAWR Wheat, Winter, cv Riband; test: Postemergence herbicidal evaluation, TRZAWR; type: in vivo, Triticum aestivum; settings: postemergence spray, rated about two-three weeks after treatment
Summary of the method: as §1

ORYSAT Rice, Tebonnet [11] = test: Postemergence herbicidal evaluation, ORYSAT; type: in vivo, Oryza sativa, (L.); settings: postemergence spray, rated about two-three weeks after treatment
Summary of the method: as §1

ZEAMX Corn, Field [12] = test: Postemergence herbicidal evaluation, ZEAMX; type: in vivo, Zea mays, L. (Sammel-Bezeichnung); settings: postemergence spray, rated about two-three weeks after treatment
Summary of the method: as §1

ABUTH Velvetleaf [13] = test: Preemergence herbicidal evaluation, ABUTH; type: in vivo, Abutilon theophrasti, Medic.; settings: preemergence
Summary of the method: (§2)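 Compound applied preemergence as an aqueous acetone spray onto freshly planted cups, dose equivalent approx. 0.013 to 0.800 kg/ha. Evaluation by rating at weeks 4–5.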

AMBEL Ragweed, Common [14] = test: Preemergence herbicidal evaluation, AMBEL; type: in vivo, Ambrosia artemisifolia, L.; settings: preemergence
Summary of the method: as §2

CASOB Sicklepod [15] = test: Preemergence herbicidal evaluation, CASOB; type: in vivo, Cassia obtusifolia, L.; settings: preemergence
Summary of the method: as §2

[16] = tested on: CHEAL Lambsquarters, Common; test: Preemergence herbicidal evaluation, CHEAL; type: in vivo, Chenopodium album, L.; settings: preemergence
Summary of the method: as §2

ECHOG Barnyardgrass [17] = test: Preemergence herbicidal evaluation, ECHOG; type: in vivo, Echinochloa crus-galli, (L.) Beau; settings: preemergence
Summary of the method: as §2

GALAP Galium [18] = test: Preemergence herbicidal evaluation, GALAP; type: in vivo, Galium aparine; settings: preemergence
Summary of the method: as §2

[19] = tested on: IPOHE Morningglory, Ivyleaf; test: Preemergence herbicidal evaluation, IPOHE; type: in vivo, Ipomoea hederacea, (L.) Jacq.; settings: preemergence
Summary of the method: as §2

SETVI Foxtail, Green [20] = test: Preemergence herbicidal evaluation, SETVI; type: in vivo, Setaria viridis, (L.) Beau; settings: preemergence
Summary of the method: as §2

GLXMAW Soybean, Williams [21] = test: Preemergence herbicidal evaluation, GLXMAW; type: in vivo, Glycine max, (L.) Merr. cv Williams; settings: preemergence
Summary of the method: as §2

[22] = tested on: TRZAWR Wheat, Winter, cv Riband; test: Preemergence herbicidal evaluation, TRZAWR; type: in vivo, Triticum aestivum; settings: preemergence
Summary of the method: as §2

ORYSAT Rice, Tebonnet [23] = test: Preemergence herbicidal evaluation, ORYSAT; type: in vivo, Oryza sativa, (L.); settings: preemergence
Summary of the method: as §2

ZEAMX Corn, Field [24] = test: Preemergence herbicidal evaluation, ZEAMX; type: in vivo, Zea mays, L. (Sammel-Bezeichnung); settings: preemergence
Summary of the method: as §2

## Cc1cc(O)ccc1-n1nnc2cc(F)c(-n3c(=O)cc(C(F)(F)F)n(C)c3=O)cc21 [Example 33]
ABUTH Velvetleaf [1]; 0.008 kg/ha
  Postemergence herbicidal rating ABUTH: 0.0
ABUTH Velvetleaf [1]; 0.016 kg/ha
  Postemergence herbicidal rating ABUTH: 3.0
ABUTH Velvetleaf [1]; 0.032 kg/ha
  Postemergence herbicidal rating ABUTH: 3.0
ABUTH Velvetleaf [1]; 0.062 kg/ha
  Postemergence herbicidal rating ABUTH: 5.0
AMBEL Ragweed, Common [2]; 0.008 kg/ha
  Postemergence herbicidal rating AMBEL: 0.0
AMBEL Ragweed, Common [2]; 0.016 kg/ha
  Postemergence herbicidal rating AMBEL: 0.0
AMBEL Ragweed, Common [2]; 0.032 kg/ha
  Postemergence herbicidal rating AMBEL: 0.0
AMBEL Ragweed, Common [2]; 0.062 kg/ha
  Postemergence herbicidal rating AMBEL: 0.0
CASOB Sicklepod [3]; 0.008 kg/ha
  Postemergence herbicidal rating CASOB: 0.0
CASOB Sicklepod [3]; 0.016 kg/ha
  Postemergence herbicidal rating CASOB: 0.0
CASOB Sicklepod [3]; 0.032 kg/ha
  Postemergence herbicidal rating CASOB: 0.0
CASOB Sicklepod [3]; 0.062 kg/ha
  Postemergence herbicidal rating CASOB: 0.0
[4]; 0.008 kg/ha
  Postemergence herbicidal rating CHEAL: 0.0
[4]; 0.016 kg/ha
  Postemergence herbicidal rating CHEAL: 0.0
[4]; 0.032 kg/ha
  Postemergence herbicidal rating CHEAL: 0.0
[4]; 0.062 kg/ha
  Postemergence herbicidal rating CHEAL: 2.0
ECHOG Barnyardgrass [5]; 0.008 kg/ha
  Postemergence herbicidal rating ECHCG: 0.0
ECHOG Barnyardgrass [5]; 0.016 kg/ha
  Postemergence herbicidal rating ECHCG: 0.0
ECHOG Barnyardgrass [5]; 0.032 kg/ha
  Postemergence herbicidal rating ECHCG: 0.0
ECHOG Barnyardgrass [5]; 0.062 kg/ha
  Postemergence herbicidal rating ECHCG: 0.0
GALAP Galium [6]; 0.008 kg/ha
  Postemergence herbicidal rating GALAP: 0.0
GALAP Galium [6]; 0.016 kg/ha
  Postemergence herbicidal rating GALAP: 0.0
GALAP Galium [6]; 0.032 kg/ha
  Postemergence herbicidal rating GALAP: 0.0
GALAP Galium [6]; 0.062 kg/ha
  Postemergence herbicidal rating GALAP: 0.0
[7]; 0.008 kg/ha
  Postemergence herbicidal rating IPOHE: 0.0
[7]; 0.016 kg/ha
  Postemergence herbicidal rating IPOHE: 2.0
[7]; 0.032 kg/ha
  Postemergence herbicidal rating IPOHE: 3.0
[7]; 0.062 kg/ha
  Postemergence herbicidal rating IPOHE: 9.0
SETVI Foxtail, Green [8]; 0.008 kg/ha
  Postemergence herbicidal rating SETVI: 0.0
SETVI Foxtail, Green [8]; 0.016 kg/ha
  Postemergence herbicidal rating SETVI: 0.0
SETVI Foxtail, Green [8]; 0.032 kg/ha
  Postemergence herbicidal rating SETVI: 0.0
SETVI Foxtail, Green [8]; 0.062 kg/ha
  Postemergence herbicidal rating SETVI: 0.0
GLXMAW Soybean, Williams [9]; 0.008 kg/ha
  Postemergence herbicidal rating GLXMAW: 1.5
GLXMAW Soybean, Williams [9]; 0.016 kg/ha
  Postemergence herbicidal rating GLXMAW: 3.5
GLXMAW Soybean, Williams [9]; 0.032 kg/ha
  Postemergence herbicidal rating GLXMAW: 4.0
GLXMAW Soybean, Williams [9]; 0.062 kg/ha
  Postemergence herbicidal rating GLXMAW: 5.0
[10]; 0.008 kg/ha
  Postemergence herbicidal rating TRZAWR: 0.5
[10]; 0.016 kg/ha
  Postemergence herbicidal rating TRZAWR: 1.0
[10]; 0.032 kg/ha
  Postemergence herbicidal rating TRZAWR: 2.0
[10]; 0.062 kg/ha
  Postemergence herbicidal rating TRZAWR: 2.5
ORYSAT Rice, Tebonnet [11]; 0.008 kg/ha
  Postemergence herbicidal rating ORYSAT: 0.0
ORYSAT Rice, Tebonnet [11]; 0.016 kg/ha
  Postemergence herbicidal rating ORYSAT: 0.0
ORYSAT Rice, Tebonnet [11]; 0.032 kg/ha
  Postemergence herbicidal rating ORYSAT: 0.5
ORYSAT Rice, Tebonnet [11]; 0.062 kg/ha
  Postemergence herbicidal rating ORYSAT: 2.0
ZEAMX Corn, Field [12]; 0.008 kg/ha
  Postemergence herbicidal rating ZEAMX: 3.0
ZEAMX Corn, Field [12]; 0.016 kg/ha
  Postemergence herbicidal rating ZEAMX: 3.0
ZEAMX Corn, Field [12]; 0.032 kg/ha
  Postemergence herbicidal rating ZEAMX: 3.5
ZEAMX Corn, Field [12]; 0.062 kg/ha
  Postemergence herbicidal rating ZEAMX: 4.0
ABUTH Velvetleaf [13]; rate 0.016 kg/ha
  ABUTH herbicidal rating: 0.0
ABUTH Velvetleaf [13]; rate 0.032 kg/ha
  ABUTH herbicidal rating: 0.0
ABUTH Velvetleaf [13]; rate 0.062 kg/ha
  ABUTH herbicidal rating: 0.0
ABUTH Velvetleaf [13]; rate 0.125 kg/ha
  ABUTH herbicidal rating: 9.0
AMBEL Ragweed, Common [14]; rate 0.016 kg/ha
  AMBEL herbicidal rating: 0.0
AMBEL Ragweed, Common [14]; rate 0.032 kg/ha
  AMBEL herbicidal rating: 0.0
AMBEL Ragweed, Common [14]; rate 0.062 kg/ha
  AMBEL herbicidal rating: 0.0
AMBEL Ragweed, Common [14]; rate 0.125 kg/ha
  AMBEL herbicidal rating: 0.0
CASOB Sicklepod [15]; rate 0.016 kg/ha
  CASOB herbicidal rating: 0.0
CASOB Sicklepod [15]; rate 0.032 kg/ha
  CASOB herbicidal rating: 0.0
CASOB Sicklepod [15]; rate 0.062 kg/ha
  CASOB herbicidal rating: 0.0
CASOB Sicklepod [15]; rate 0.125 kg/ha
  CASOB herbicidal rating: 0.0
[16]; rate 0.016 kg/ha
  CHEAL herbicidal rating: 9.0
[16]; rate 0.032 kg/ha
  CHEAL herbicidal rating: 9.0
[16]; rate 0.062 kg/ha
  CHEAL herbicidal rating: 9.0
[16]; rate 0.125 kg/ha
  CHEAL herbicidal rating: 9.0
ECHOG Barnyardgrass [17]; rate 0.016 kg/ha
  ECHCG herbicidal rating: 0.0
ECHOG Barnyardgrass [17]; rate 0.032 kg/ha
  ECHCG herbicidal rating: 0.0
ECHOG Barnyardgrass [17]; rate 0.062 kg/ha
  ECHCG herbicidal rating: 0.0
ECHOG Barnyardgrass [17]; rate 0.125 kg/ha
  ECHCG herbicidal rating: 0.0
GALAP Galium [18]; rate 0.016 kg/ha
  GALAP herbicidal rating: 0.0
GALAP Galium [18]; rate 0.032 kg/ha
  GALAP herbicidal rating: 0.0
GALAP Galium [18]; rate 0.062 kg/ha
  GALAP herbicidal rating: 0.0
GALAP Galium [18]; rate 0.125 kg/ha
  GALAP herbicidal rating: 0.0
[19]; rate 0.016 kg/ha
  IPOHE herbicidal rating: 0.0
[19]; rate 0.032 kg/ha
  IPOHE herbicidal rating: 0.0
[19]; rate 0.062 kg/ha
  IPOHE herbicidal rating: 0.0
[19]; rate 0.125 kg/ha
  IPOHE herbicidal rating: 0.0
SETVI Foxtail, Green [20]; rate 0.016 kg/ha
  SETVI herbicidal rating: 0.0
SETVI Foxtail, Green [20]; rate 0.032 kg/ha
  SETVI herbicidal rating: 0.0
SETVI Foxtail, Green [20]; rate 0.062 kg/ha
  SETVI herbicidal rating: 0.0
SETVI Foxtail, Green [20]; rate 0.125 kg/ha
  SETVI herbicidal rating: 0.0
GLXMAW Soybean, Williams [21]; rate 0.016 kg/ha
  GLXMAW herbicidal rating: 0.0
GLXMAW Soybean, Williams [21]; rate 0.032 kg/ha
  GLXMAW herbicidal rating: 0.0
GLXMAW Soybean, Williams [21]; rate 0.062 kg/ha
  GLXMAW herbicidal rating: 0.0
GLXMAW Soybean, Williams [21]; rate 0.125 kg/ha
  GLXMAW herbicidal rating: 0.0
[22]; rate 0.016 kg/ha
  TRZAWR herbicidal rating: 0.0
[22]; rate 0.032 kg/ha
  TRZAWR herbicidal rating: 0.0
[22]; rate 0.062 kg/ha
  TRZAWR herbicidal rating: 0.0
[22]; rate 0.125 kg/ha
  TRZAWR herbicidal rating: 0.0
ORYSAT Rice, Tebonnet [23]; rate 0.016 kg/ha
  ORYSAT herbicidal rating: 0.0
ORYSAT Rice, Tebonnet [23]; rate 0.032 kg/ha
  ORYSAT herbicidal rating: 0.0
ORYSAT Rice, Tebonnet [23]; rate 0.062 kg/ha
  ORYSAT herbicidal rating: 0.0
ORYSAT Rice, Tebonnet [23]; rate 0.125 kg/ha
  ORYSAT herbicidal rating: 0.0
ZEAMX Corn, Field [24]; rate 0.016 kg/ha
  ZEAMX herbicidal rating: 0.0
ZEAMX Corn, Field [24]; rate 0.032 kg/ha
  ZEAMX herbicidal rating: 0.0
ZEAMX Corn, Field [24]; rate 0.062 kg/ha
  ZEAMX herbicidal rating: 0.0
ZEAMX Corn, Field [24]; rate 0.125 kg/ha
  ZEAMX herbicidal rating: 0.0

Source: patent publication US20020111274A1, “1-alkyl-3-[1-(substituted phenyl) benzotriazol-6-yl] uracils” (BASF Aktiengesellschaft, priority 2000, published 2002)
